Legend:
[1] = Compound stability in rat liver microsomes; format: in vitro ADME; conditions: pH 7.4; for CLint scaled at 5 μM: liver microsomes, in vivo CLint extrapolated from rat liver microsome incubation; for half-life at 5 μM: rat liver microsomes 0.5 mg protein/mL, compound 5 μM, NADPH 1.0 mM, 37° C., read-out: Rat T1/2
Method: (§1) The LC/MS/MS system used in the analysis consists of an Agilent 1200 Series vacuum degasser, binary pump, well-plate autosampler, thermostatted column compartment, the Agilent G6430 Triple Quadrupole Mass Spectrometer with an electrosprayionization (ESI) source. Quantitative analysis was carried out using MRM mode. The parameters for MRM transitions are in the Table A.
(§2) An Agilent XDB-C18, 2.1×30 mm, […] column was used for the analysis. 5 μL of the samples were injected. Analysis condition: The mobile phase was 0.1% formic acid in water (A) and 0.1% formic acid in methanol (B). The flow rate was 0.4 mL/min. And the gradient of Mobile phase was in the Table B.
(§3) Alternatively, an Agilent 6330 series LC/MS/MS spectrometer equipped with G1312A binary pumps, a G1367A autosampler and a G1314C UV detector were used in the analysis. An ESI source was used on the LC/MS/MS spectrometer. The analysis was done in positive ion mode as appropriate and the MRM transition for each analyte was optimized using standard solution. A Capcell MP-C18 100×4.6 mm I.D., […] column (Phenomenex, Torrance, Calif., USA) was used during the analysis. The mobile phase was 5 mM ammonia acetate, 0.1% MeOH in water (A): 5 mM ammonia acetate, 0.1% MeOH in acetonitrile (B) (70:30, v/v). The flow rate was 0.6 mL/min. Column was maintained at ambient temperature. 20 μL of the samples were injected.
(§4) Human or rat liver microsomes incubations were conducted in duplicate in polypropylene tubes. The typical incubation mixtures consisted of human or rat liver microsomes (0.5 mg protein/mL), compounds of interest (5 μM) and NADPH (1.0 mM) in a total volume of 200 μL potassium phosphate buffer (PBS, 100 mM, pH 7.4). Compounds were dissolved in DMSO and diluted with PBS such that the final concentration of DMSO was 0.05%. The enzymatic reactions were commenced with the addition of protein after a 3-min preincubation and incubated in a water bath open to the air at 37° C. Reactions were terminated at various time points (0, 5, 10, 15, 30, 60 min) by adding equal volume of ice-cold acetonitrile. The samples were stored at −80° C. until LC/MS/MS assays.
(§5) The concentrations of compounds in the incubation mixtures of human or rat liver microsomes were determined by a LC/MS/MS method. The ranges of the linearity in the concentration range were determined for each tested compounds.
(§6) A parallel incubation was performed using denatured microsomes as the negative control, and reactions were terminated at various time points (0, 15, 60 min) after incubation at 37° C.
(§7) Dextromethorphan (70 μM) was selected as the positive control, and reactions were terminated at various time points (0, 5, 10, 15, 30, 60 min) after incubation at 37° C. Both positive and negative control samples were included in each assay to ensure the integrity of the microsomal incubation system.
(§8) The concentrations of compounds in human or rat liver microsome incubations were plotted as a percentage of the relevant zero time point control for each reaction. The in vivo CLint were extrapolated (ref.: Naritomi, Y.; Terashita, S.; Kimura, S.; Suzuki, A.; Kagayama, A.; and Sugiyama, Y.; Prediction of human hepatic clearance from in vivo animal experiments and in vitro metabolic studies with liver microsomes from animals and humans. Drug Metab. Dispos., 2001, 29: 1316-1324).

[2] = Compound stability in human liver microsomes; format: in vitro ADME; conditions: pH 7.4; for CLint scaled at 5 μM: liver microsomes, in vivo CLint extrapolated from human liver microsome incubation; for half-life at 5 μM: human liver microsomes 0.5 mg protein/mL, compound 5 μM, NADPH 1.0 mM, 37° C., read-out: Human T1/2
Method: as §1, §2, §3, §4, §5, §6, §7, §8

[3] = Pharmacokinetic profiles in rats; format: in vivo, rat; conditions: for Cl/F / AUC(0-t) / half-life / Vd: iv dosing 1 mg/kg; for F: oral vs iv (iv 1 mg/kg; p.o. generally 5 or 10 mg/kg); for AUC(0-t) / half-life / Vd: rat, plasma; for Vd: read-out: Vss
Method: The compounds disclosed herein are assessed in pharmacokinetic studies in mice, rats, dogs or monkeys. The compounds are administered as a water solution, 2% HPMC+1% TWEEN®80 in water solution, 5% DMSO+5% solutol in saline, 4% MC suspension or capsule. For the intravenous administration, the animals are generally given at 1 or 2 mg/kg dose. For the oral (p.o.) dosing, mice and rats are generally given 5 or 10 mg/kg dose, and dogs and monkeys are generally given 10 mg/kg dose. The blood samples (0.3 mL) are drawn at 0.25, 0.5, 1.0, 2.0, 3.0, 4.0, 6.0, 8.0, 12 and 24 h time points or 0.083, 0.25, 0.5, 1.0, 2.0, 4.0, 6.0, 8.0 and 24 h time points and centrifuged at 3,000 or 4000 rpm for 2 to 10 min. The plasma solutions are collected, stored at −20° C. or −70° C. until analyzed by LC/MS/MS as described above.

Row | Compound | CLint scaled at 5 μM [1] [mL/min/kg] | half-life at 5 μM [1] [min] | CLint scaled at 5 μM [2] [mL/min/kg] | half-life at 5 μM [2] [min] | Cl/F [3] [mL/min/kg] | F [3] [%] | AUC(0-t) [3] [ng·h/mL] | half-life [3] [min] | Vd [3] [L/kg]
1 | CC[C@H](Nc1ncnc(N)c1-c1nc(C)no1)c1cc2cccc(-c3cnn(C)c3)c2c(=O)n1C1CC1 [Ex. 32, (S)-3-(1-((6-amino-5-(3-methyl-1,2,4-oxadiazol-5-yl)pyrimidin-4-yl)amino)propyl)-2-cyclopropyl-8-(1-methyl-1H-pyrazol-4-yl)isoquinolin-1(2H)-one] | 21.2 | 117 | 23.4 | 74.3 | 24.3 | 74.2 | 688 | 89.4 | 2.42
2 | CC[C@H](Nc1ncnc(N)c1-c1nnc(C)o1)c1cc2cccc(C)c2c(=O)n1C1CC1 [Ex. 6, (S)-3-(1-((6-amino-5-(5-methyl-1,3,4-oxadiazol-2-yl)pyrimidin-4-yl)amino)propyl)-2-cyclopropyl-8-methylisoquinolin-1(2H)-one] | 324 | 7.66 | 93.1 | 18.7 | 62.3 | 48.66 | 266 | 51.6 | 4.08
3 | CC[C@H](Nc1ncnc(N)c1-c1nnn(C)n1)c1cc2cccc(Cl)c2c(=O)n1C1CC1 [Ex. 13, (S)-3-(1-((6-amino-5-(2-methyl-2H-tetrazol-5-yl)pyrimidin-4-yl)amino)propyl)-8-chloro-2-cyclopropylisoquinolin-1(2H)-one] | 137 | 18.2 | 157 | 11.1 | 36.2 | 67.9 | 465 | 99.6 | 4.42

Continued, values first:

Row | CLint scaled at 5 μM [1] [mL/min/kg] | half-life at 5 μM [1] [min] | CLint scaled at 5 μM [2] [mL/min/kg] | half-life at 5 μM [2] [min] | Cl/F [3] [mL/min/kg] | F [3] [%] | AUC(0-t) [3] [ng·h/mL] | half-life [3] [min] | Vd [3] [L/kg] | Compound
4 | 100 | 24.9 | 251 | 6.93 | 48.7 | 64.61 | 341 | 48.6 | 2.65 | CC[C@H](Nc1ncnc(N)c1-c1ncn(C)n1)c1cc2cccc(Cl)c2c(=O)n1C1CC1 [Ex. 20, (S)-3-(1-((6-amino-5-(1-methyl-1H-1,2,4-triazol-3-yl)pyrimidin-4-yl)amino)propyl)-8-chloro-2-cyclopropylisoquinolin-1(2H)-one]
5 | 130 | 19.2 | 258 | 6.73 | – | – | – | – | – | CC[C@H](Nc1ncnc(N)c1-c1noc(C)n1)c1cc2cccc(Cl)c2c(=O)n1C1CC1 [Ex. 21, (S)-3-(1-((6-amino-5-(5-methyl-1,2,4-oxadiazol-3-yl)pyrimidin-4-yl)amino)propyl)-8-chloro-2-cyclopropylisoquinolin-1(2H)-one]
6 | 456 | 5.45 | 479 | 3.63 | – | – | – | – | – | Cc1noc(-c2c(N)ncnc2N[C@@H](C)c2cc3cccc(Cl)c3c(=O)n2-c2cccc(F)c2)n1 [Ex. 23, (S)-3-(1-((6-amino-5-(3-methyl-1,2,4-oxadiazol-5-yl)pyrimidin-4-yl)amino)ethyl)-8-chloro-2-(3-fluorophenyl)isoquinolin-1(2H)-one]
7 | 125 | 19.9 | 225 | 7.73 | – | – | – | – | – | CCCCOC(=O)c1nc(-c2c(N)ncnc2N[C@@H](CC)c2cc3cccc(Cl)c3c(=O)n2C2CC2)nn1C [Ex. 14, (S)-butyl 3-(4-amino-6-((1-(8-chloro-2-cyclopropyl-1-oxo-1,2-dihydro-isoquinolin-3-yl)propyl)amino)pyrimidin-5-yl)-1-methyl-1H-1,2,4-triazole-5-carboxylate]
